Laboratory results from patent US12458604B2, “Methods of lipid nanoparticle manufacture and compositions derived therefrom” (George Mason Research Foundation, Inc., priority 2020, dated 2025).

How the values were obtained:
[1] = pKa of the ionizable lipid measured in the LNP (TNS pKa); assay type: physicochemical; settings: for pKa: lipid nanoparticle (LNP) containing the ionizable lipid; for DpKa: ACD pKa versus TNS pKa
Excerpt: In some embodiments, the “LNP lipids” are MC3, DLin, and/or KC2 as shown below. The table highlights the pKa of the ionizable lipid measured in the LNP (TNS pKa) versus the pKa in aqueous medium predicated by a commercial software ACDLabs Percepta.:
In one embodiment, the amount of nucleic acid is represented by the LNP mole ratio of the amine on the ionizable lipid to the phosphate groups on the nucleic acid backbone and is typically about 3 to about 6. In one embodiment, the pKa of the LNP is in the about 6 to about 7 range corresponding to the pH in the early endosome. A link between the pKa of ionizable lipid in the LNP and gene silencing efficiency has shown that an LNP pKa in the range of about 6 to about 7 produced more silencing for the ionizable lipid DLinDMA and was associated with promoting lipid structures that could disrupt the membrane of the endosome. The pKa of the LNP may be measured using the pH-dependence of fluorescence enhancement of the anionic dye TNS.

HEK293 cells = experiment: Firefly Luciferase Assay for mRNA Delivery Efficiency; assay type: cell-based; settings: for potency when sodium acetate concentration was reduced from 60 mM to 25 mM / potency when mixed at the higher concentration 1.5 mg/ml vs the lower concentration 0.25 mg/ml: Example 12; for potency when mixed at the higher concentration 1.5 mg/ml vs the lower concentration 0.25 mg/ml / LNP potency at the higher versus lower mixing concentration: same dose; for LNP potency at the higher versus lower mixing concentration: NP 4, sodium acetate pH 4
Description: Summary: LNPs were formulated using total lipid concentration of 6 to 27 mM comprised of KC2/DSPC/Cholesterol/PEG-DMG (50:10:38.5:1.5 mol %). Each one of the lipids were solubilized in ethanol until a clear solution was observed. The four lipids were combined to get 50 mM total lipid concentration (25/5/19.25/0.75 mM respectively), then serial dilutions were done to reach 6 to 27 mM. […] Purified mRNA was ethanol precipitated, washed and resuspended in nuclease-free water to reach concentrations of 1 mg/mL. […] 16 μl Lipid Mix and 341 mRNA solution were mixed on Setting 3 and ejected into 48 μl 1×DPBS pH 7.4. The formed LNPS were then diluted into an additional 96 μl 1×DPBS pH 7.4. LNPs were then dialyzed against 1×DPBS pH 7.4 for 4×1 hr. LNPs were then diluted so that 32 ul contained 200 ng and 12K HEK293 cells were transfected with the same 200 ng dose but manufactured at different concentrations in the microfluidic mixer.
A. Firefly Luciferase Assay for mRNA Delivery Efficiency. After 24 hours of transfection, transfected cells were conditioned to room temperature for 30 minutes prior the Firefly Luciferase Assay. Quantilum Recombinant Luciferase standard curve was prepared in 10% EMEM in 5-fold serial dilutions. 50 ul of each standard point from the range of 3.9×10^−5 mg/ml to 4.88×10^−3 mg/ml were included in the microplate as a positive enzyme activity control (data not shown) to maintain a linearity of 10^7 RLU/mg/ml. The ONE-Glo substrate, previously conditioned to room temperature for at least 4 hours, was added to each untransfected, transfected and Quantilum wells in a ratio 1:1. Assay plates were incubated for 3 minutes in darkness and immediately introduced into the Cytation 5 Cell Imaging Multi-Mode Reader (Biotek) to read luminescence.
Each one of the lipids were solubilized in ethanol until a clear solution was observed. […] To prepare 75 mM total lipid concentration (37.5/7.5/28.88/1.13 mM respectively), KC2/DL-ADDE-C2C2-PipZ/BODD-ADDE-C2C4-PipZ and Cholesterol were mixed first, same for DSPC and PEG to solubilize both solutions in ethanol before combining them to reach 75 mM. […] Purified mRNA was ethanol precipitated, washed and resuspended in nuclease-free water to reach concentrations of 4.4 mg/ml. […] 16 μl Lipid Mix and 341 mRNA solution were mixed on Setting 3 and ejected into 48 μl 1×DPBS pH 7.4. The formed LNPS were then diluted into an additional 96 μl 1×DPBS pH 7.4. LNPs were then dialyzed against 1×DPBS pH 7.4 for 4×1 hr. LNPs were then diluted so that 32 ul contained 25-200 ng and 12K HEK293 cells were transfected with the same dose but manufactured at different concentrations in the microfluidic mixer.

mice = experiment: In vivo and ex vivo Firefly Luciferase expression (IVIS); settings: for higher potency in vivo of buffer-free assembly compared to using a buffer: by IVIS, high lipid and mRNA mixing concentrations, 0.25 protons per ionizable lipid, NP 4
Description: C: In vivo Firefly Luciferase expression in IM administration. 5 ug of encapsulated mRNA were injected in mice in intramuscular (I.M.), intradermal (ID.) and intravenous (I.V.) injections. ROIs were calculated using the IVIS system. Imaging were performed at 4 and 20 hours.
(§1) C: In vivo Firefly Luciferase expression in IM administration. 0.5-5 ug of total mRNA was injected in mice in intramuscular (I.M.) injections. Luciferin was administrated intraperitoneally at 4 hours post-injection and luciferase expression monitored by live animal imaging at 4 and 24 hours. ROIs were calculated using the IVIS system.
as §1, with “D:” for “C:”, “In vivo and ex” for “In”, “administration for LNPs mixed at 1.5 mg/ml. 1” for “administration. 0.5-5”, “4” for “4 and 24”, “system. For Ex Vivo, organs were extracted and imaged immediately after In Vivo imaging.” for “system.”
E: In vivo and ex vivo Firefly Luciferase expression in IV administration for LNPs mixed at 1.5 mg/ml. 1 ug of total mRNA was injected in mice in […] (I.V.) injections. Luciferin was administrated intraperitoneally at 4 hours post-injection and luciferase expression monitored by live animal imaging at 4 hours. ROIs were calculated using the IVIS system. For Ex Vivo, organs were extracted and imaged immediately after In Vivo imaging.

SARS-CoV-2 = experiment: In vivo protection against viral challenge; settings: SARS-CoV-2 immunogen mRNA, mice, I.M.
Description: Summary: LNPs were formulated using total lipid concentration of 10-75 mM comprised of several ionizable/DSPC/Cholesterol/PEG-DMG (47-50:10-13:37-38.5:1.5-2 mol %). Each one of the lipids were solubilized in ethanol until a clear solution was observed. The four lipids were combined to get 75 mM total lipid concentration then serial dilutions were done to reach 10 mM. Codon optimized 2019-nCoV Wuhan S-2P (Covid) sequence was cloned into an mRNA plasmid (optimized 3′ and 5′ UTR and containing a 101 polyA tail (SEQ ID NO: 4)) for co-transcriptional capping, in vitro transcribed using N1 methyl pseudouridine modified nucleoside and cellulose purified to remove dsRNA. Purified mRNA was ethanol precipitated, washed and resuspended in nuclease-free water to reach concentrations of 5.5 mg/ml. […] 16 μl Lipid Mix and 32 μl mRNA solution were mixed on Setting 3 and ejected into 48 μl 1×DPBS pH 7.4. The formed LNPS were then diluted into an additional 96 μl 1×DPBS pH 7.4. LNPs were then dialyzed against 1×DPBS pH 7.4 for 4×1 hr. LNPs were then diluted so that 32 ul contained 25-200 ng and 12K HEK293 cells were transfected with the same dose but manufactured at different concentrations in the microfluidic mixer.
A: In vivo protection against viral challenge—Survival proportion, Weight and Temperature in Challenge model. […]

[2] = pKa of the ionizable lipid measured in the LNP; published ionizable lipids; cited from earlier work

Row | SMILES | pKa [1] | potency when sodium acetate concentration was reduced from 60 mM to 25 mM (HEK293 cells) | potency when mixed at the higher concentration 1.5 mg/ml vs the lower concentration 0.25 mg/ml (HEK293 cells) | potency on increasing pH from 4 to 5 (HEK293 cells; Example 13, 1.5 mg/ml mRNA in 25 mM NaOAc) | LNP potency at the higher versus lower mixing concentration (HEK293 cells; in vitro) | higher potency in vivo of buffer-free assembly compared to using a buffer (mice; IM administration) [×] | higher potency in vivo of buffer-free assembly compared to using a buffer (mice; IV administration) [×] | Protective against lethal challenge (SARS-CoV-2; 0.25 ug) [%] | DpKa [1] | LNP potency increase when reducing sodium acetate from 50 mM to 25 mM (HEK293 cells; 1.5 mg/ml of mRNA, pH 4, NP 4) [%] | delivery efficiency at the same dose with increased mixing concentration (HEK293 cells; in vitro, KC2/DSPC/Cholesterol/PEG-DMG LNPs, NP 4) | LNP potency increase when reducing sodium acetate concentration from 25 mM to 10 mM (HEK293 cells; mRNA concentration of 0.25 mg/ml, pH 4, NP 4) [×] | delivery efficiency at the same dose with increased mixing concentration (mice; in vivo, 5 ug of encapsulated mRNA, lipids 5 to 100 mM, mRNA 0.1 to 2 mg/ml) | TNS pKa [2] | Protective against lethal challenge (SARS-CoV-2; 0.5 ug) [%]
1 | CCCCC/C=C\C/C=C\CCCCCCCCOC(=O)CCN(CCC(=O)OCCCCCCCC/C=C\C/C=C\CCCCC)CCN1CCN(C)CC1 (racemic) [DL-C2/C2-PipZ] | ~7.5 | did not show either effect | did not | – | – | – | – | – | – | – | – | – | – | – | –
2 | CCCCCCCCC(CCCCCCCC)COC(=O)CCN(CCCCN1CCN(C)CC1)CCC(=O)OCC(CCCCCCCC)CCCCCCCC [BOD-C2/C4-PipZ] | ~6.5 | increased potency | large increase in potency | increases potency | LNP potency increases | 3 | 3 | 100 | – | – | – | – | – | – | –
3 | CCCCC/C=C\C/C=C\CCCCCCCCOCC(CN(C)C)OCCCCCCCC/C=C\C/C=C\CCCCC (centres unmarked) [DLin] | – | – | – | – | – | – | – | – | 1.8 | – | – | – | – | – | –
4 | CCCCC/C=C\C/C=C\CCCCCCCCC1(CCCCCCCC/C=C\C/C=C\CCCCC)OCC(CCN(C)C)O1 (centres unmarked) [KC2] | ~6.5 | increased potency | large increase in potency | – | LNP potency increases | – | – | – | 2.6 | 44 | increased delivery efficiency at the same dose only at the lowest NaOAc concentration of 50 mM | 2.2 | increased delivery efficiency | 6.7 | –
5 | CCCCC/C=C\C/C=C\CCCCCCCCC(CCCCCCCC/C=C\C/C=C\CCCCC)OC(=O)CCCN(C)C [MC3] | ~6.5 | increased potency | large increase in potency | – | LNP potency increases | – | – | – | 3 | – | – | – | – | 6.4 | 100
